# How the values were obtained:
# HF-fed C57/BL6 mice [1] = assay: Metabolic studies (body weight, GTT) in HF-fed wild type mice, 4 months; format: in vivo, mouse; conditions: obese HF-fed mice, 3.0 mg/100 ml drinking water
# Method: Mice, diet, and drug treatment. Dietary Obesity Studies: Wild type (wt) male C57/BL6 male mice were maintained on either a standard laboratory chow-fed diet (Con) with 13% kcal fat, (diet #5053, Lab Diet, Inc, St. Louis, Mo.) or a high fat, western style diet (HFD) with 45% kcals from fat, (diet #58126, Lab Diet, Inc., St. Louis, Mo.) for 4 months. […]
# Metabolic Measurements-Glucose tolerance was performed using an intraperitoneal glucose tolerance test (GTT) as previously described (Trasino et al., Vitamin A Deficiency Causes Hyperglycemia and Loss of Pancreatic β-Cell Mass, J Biol Chem. 2014 Dec. 1. pii: jbc.M114.616763). […] Tail vein blood glucose was measured at 20, 40, 60 and 120 minutes after injection using a FreeStyle Lite Blood Glucose Monitoring System (Abbott Diabetes Care, Inc. Alameda, Calif.). To determine insulin secretion responses to glucose, serum fractions were isolated between 0-60 minutes post glucose injections and insulin concentrations were measured using an Ultrasensitive Insulin ELISA Kit (Alpco, Inc. Salem, N.H.). Random blood glucose measurements were taken from tail veins of 4 mice per group at 2-3 random time points daily Means are expressed as±standard error of the mean (S.E.M) and P-values were calculated using one-way analysis of variance followed by Bonferroni post-hoc analysis.
# RARβ2 = biological target: T1, RARβ2 (Homo sapiens, UniProt P10826); conditions: as described in Lund et al. 2005; cited from earlier work
# T1 sequence (P10826 1-448 isoform P10826-2): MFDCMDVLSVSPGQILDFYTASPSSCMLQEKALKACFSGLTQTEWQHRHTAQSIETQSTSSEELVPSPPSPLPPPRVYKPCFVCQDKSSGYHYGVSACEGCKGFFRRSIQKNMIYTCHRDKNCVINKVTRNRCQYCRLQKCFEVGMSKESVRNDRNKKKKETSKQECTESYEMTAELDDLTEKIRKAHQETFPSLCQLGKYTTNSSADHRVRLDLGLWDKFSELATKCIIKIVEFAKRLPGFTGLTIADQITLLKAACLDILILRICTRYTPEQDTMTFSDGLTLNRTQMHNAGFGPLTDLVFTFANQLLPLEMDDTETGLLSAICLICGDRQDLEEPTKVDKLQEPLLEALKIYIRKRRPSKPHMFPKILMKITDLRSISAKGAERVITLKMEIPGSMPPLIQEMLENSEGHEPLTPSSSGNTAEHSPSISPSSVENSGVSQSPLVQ
# Ob/Ob and Db/Db mice = assay: Metabolic studies (body weight, GTT, insulin secretion, ITT) in Ob/Ob and Db/Db mice, 8 weeks; format: in vivo, mouse; conditions: genetically obese and diabetic Ob/Ob and Db/Db mice
# HF-fed C57/BL6 mice [2] = assay: HF-fed mice treated 3 months: body weight, GTT, fasting glucose (Example 22); format: in vivo, mouse
# Method: METHODS. Preparation of RARβ agonists solution. AC261066 and AC55649 were dissolved in dimethyl sulfoxide (DMSO) at the concentration of 3.0 mg/ml and diluted in the drinking water for mice to the final concentration of 3.0-mg/100 ml. Mice, diet, and drug treatments. Wt male C57/BL6 male mice were maintained on either a standard laboratory chow-fed diet (Con) with 13% kcal fat, (diet #5053, Lab Diet, Inc, St. Louis, Mo., [n=4]) or a high fat, western style diet (HFD) with 45% kcals from fat, (diet #58126, Lab Diet, Inc., St. Louis, Mo.) for 3 months. Two weeks after the start of the HFD treatment, the HFD group was further split into 3 groups for 3 months: i) HFD and drinking water containing 1% DMSO (n=5); ii) high fat diet (HFD) and drinking water containing 3.0 mg/100 ml AC261066, a specific RARβ agonist (n=5) or iii) HFD and drinking water containing 3.0 mg/100 ml AC55649, a specific RARβ agonist (n=4). After 3 months the mice were tested for glucose intolerance with an intra-peritoneal glucose tolerance test (GTT). Mice were then sacrificed by cervical dislocation. Blood and various tissue samples were harvested.
# Glucose Tolerance Test (GTT). Glucose tolerance was performed using an intraperitoneal glucose tolerance test (GTT). Mice were fasted overnight (˜16 hrs) followed by intra-peritoneal injections (n=3-5 per group) of 50% glucose in PBS at 2.0 g of glucose/kg of body weight. Tail vein blood was collected at 15, 30, 45, 60, and 120 minutes post-injection for glucose measurements using a FreeStyle Lite Blood Glucose Monitoring System (Abbott Diabetes Care, Inc. Alameda, Calif.). Random and fasting blood glucose measurements were taken from tail veins of 4 mice per group at 2-3 random time points daily or just prior to GTT. Means are expressed as ±standard error of the mean (S.E.M) and P-values were calculated using one-way analysis of variance followed by Bonferroni post-hoc analysis. Grubbs' maximum normal residual test was used for detection of one or more outliers.
compound,measurement,setting,value
"CCCCCCCCc1ccc(-c2ccc(C(=O)O)cc2)cc1 [AC55649, 4′-Octyl-[1,1′-biphenyl]-4-carboxylic acid]",body weights,HF-fed C57/BL6 mice [1],significant reductions
same,isoform selectivity for the human RARβ2 receptors,RARβ2,highly isoform-selective agonists
same,body weights,Ob/Ob and Db/Db mice,significant reductions
same,glucose tolerance and area under the curve glucose,HF-fed C57/BL6 mice [2],improved
same,overnight fasting glucose levels,HF-fed C57/BL6 mice [2],significant reductions
same,decrease in body weights compared to HF-fed mice,HF-fed C57/BL6 mice [2]; 3.0 mg/100 ml drinking water,~10%

# Reference: patent US20220304945A1, “METHODS OF TREATING METABOLIC SYNDROME RELATED CONDITIONS USING RETINOIC ACID RECEPTOR AGONISTS” (Cornell University, priority 2014, published 2022)
